The subject of assay [1] is TNF-α-induced VCAM-1 expression on human endothelial cells. The assay is described as follows: Cell-ELISA for VCAM-1 expression. Particulars: added 2–4 h prior to TNF-α stimulation; data not shown. The assay is classed as cell-based. As for the experimental part: (§1) The endothelial cells were incubated with or without MPG and its derivatives at various concentrations for 2 h followed by treatment with TNF-α (10 ng/ml) for 16 h for ICAM-1 and VCAM-1 expression and 4 h for E-selectin expression. A Cell-ELISA was used to assess the expression of ICAM-1, VCAM-1 and E-selectin on the surface of endothelial cells as described previously.
Background: ELISA stands for enzyme-linked immunosorbent assay.

Assay [2] concerns NF-κB-dependent reporter gene transcription in HUVECs. The assay is described as follows: NF-κB reporter gene assay (luciferase). It is filed as cell-based, human. To be noted: 400 µM, TNF-α 10 ng/ml. The method, then:
NF-κB dependent reporter gene transcription was measured as per the instructions of the luciferase assay kit (Promega, USA). Briefly, human endothelial cells ([…]) were plated in 96-well plates. HUVECs were transiently transfected by electroporation with a NF-κB-containing luciferase reporter gene plasmid for 24 h. After transfection, cells were washed and treated with 400 µM MPTAG for 24 h. For the TNF-α stimulation, cells were treated with 10 ng/ml of TNF-α for another 24 h. Supernatants after cell lysis were assayed for luciferase activity. The mean value for cells treated with no MPTAG and no TNF-α was set to 1, and -fold differences were determined by comparing values against this set value. Cells were co-transfected with a control vector expressing β-galactosidase under SV40 promoter to normalize transfection efficiency.

Assay [3] deals with TNF-α-induced E-selectin expression on human endothelial cells. Put plainly: Cell-ELISA for E-selectin expression. The assay is classed as cell-based. Particulars: added 2–4 h prior to TNF-α stimulation; data not shown. The method, then: as §1
Assay [4] deals with NF-κB DNA-binding activity in HUVECs. Put plainly: NF-κB activation assay (EMSA) in nuclear extracts. It is filed as cell-based, human. The method, then:
The endothelial cells were subjected to the indicated treatments followed by induction with TNF-α for indicated time points or 30 mins. The cells were then washed with PBS and dislodged using a cell scraper. The cytoplasmic and nuclear extracts were prepared as described previously, [46].
NF-κB activation in the nuclear extracts of human endothelial cells was assessed by electrophoretic mobility shift assay (EMSA) as described previously, [46]. For supershift experiment, nuclear extracts prepared from unstimulated and TNF-α-stimulated cells were incubated with antibodies against the p50 or p65 subunit of NF-κB or -α-tubulin for 15 mins at 37°C before the complex was analyzed by EMSA. Addition of equal amount of radioactive-labelled probe to all the samples was indicated by the similar intensity of the unincorporated probe observed towards the end of the gel.
On the technique in general: A gel shift assay detects complexes by their altered migration in electrophoresis.

In assay [5] the test system is E-selectin mRNA in endothelial cells. The assay is described as follows: RT-PCR of E-selectin transcript. Particulars: 400 µM pretreatment, TNF-α 10 ng/ml 4 h. It is filed as cell-based, human. As for the experimental part: (§2) In order to examine whether MPTAG reduced the mRNA transcript levels of cell adhesion molecules genes, the endothelial cells were pretreated with 400 µM MPTAG for 2 h before induction with TNF-α for 4 h followed by RT-PCR. RNA was isolated from MPTAG-treated cells according to a modified guanidinium thiocyanate procedure. The expression of the transcripts for ICAM-1, VCAM-1 and E-selectin was evaluated by RT-PCR [45]. β-Actin levels expressed under similar conditions were used as a loading control.

For assay [6], the system named is TNF-α-induced IKK-β activation in HUVECs. The assay is described as follows: IKK-β activation in treated cells (immunoprecipitation, kinase assay). It is filed as cell-based, human. The method, then:
(§3) In brief, confluent HUVECs were incubated with or without MPTAG and were stimulated with TNF-α (10 ng/ml) for 15 mins. The cells were washed and lysed in Lysis buffer containing 50 mM HEPES, pH 7.6, 10% glycerol, 1 mM sodium orthovanadate, 100 mM NaCl, 1% NP-40, 1 mM EDTA and protease inhibitor cocktail and allowed to swell on ice for 45 mins. Following centrifugation at 13,000 rpm for 45 mins, the supernatants were collected as “total cell extracts” and stored at −70°C. Immunoprecipitation was performed as per the instructions of Protein G immunoprecipitation kit (Sigma Aldrich, USA). Endogenous IKK complexes were immunoprecipitated in the following reaction mixtures: 100–300 µg of total cell extracts were incubated with 2–4 µg anti-IKK-β or PKAα antibody in 100 µl 1× IP buffer. After incubation for 16 h at 4°C with constant shaking, 50 µl of activated protein G beads were added and the mixture was incubated under rotation for an additional 3 h at 4°C.
Kinase assay was performed as previously described. Immunoprecipitates from 100 µg of total cell extracts were used for kinase assays. The reaction mixture consisted of kinase buffer (20 mM Tris Cl, pH 7.6, 1 mM EDTA, 1 mM sodium orthovanadate, 20 mM MgCl2, 2 mM DTT), 2 µg GST-IκBα(1–54), 5 µM ATP and 1 µCi [γ ^32P] ATP in a volume of 30 µl. […]

For assay [7], the system named is association of Akt with IKK-β. The assay is described as follows: Akt/IKK-β association (co-immunoprecipitation). It is filed as cell-based, human. To be noted: dose-dependent and time-dependent. As for the experimental part: as §3
Nuclear and cytoplasmic extracts were fractionated on SDS-PAGE with equal amount of proteins per well and transferred onto PVDF membranes and those membranes were incubated with appropriate primary antibodies and treated with HRP conjugated secondary antibodies followed by detection with DAB-H2O2 system. β-tubulin, α-actin and Lamin B1 were used as loading controls. […]

Assay [8] relates to VCAM-1 mRNA in endothelial cells. Put plainly: RT-PCR of VCAM-1 transcript. It is filed as cell-based, human. To be noted: 400 µM pretreatment, TNF-α 10 ng/ml 4 h. As for the experimental part:
as §2

SMILES strings stand for the structures. Entries after “also recorded” stand apart in the source; their conditions may differ.

Turning to `CC(=O)OC[C@H]1O[C@@H](Oc2c(C)occc2=O)[C@H](OC(C)=O)[C@@H](OC(C)=O)[C@@H]1OC(C)=O` [MPTAG, 2-methyl-pyran-4-one-3-O-β-D-2′,3′,4′,6′-tetra-O-acetyl glucopyranoside], in assay [1], the “inhibition of VCAM-1” value was “maximum inhibition”. In addition, the NF-κB-regulated luciferase activity entry in assay [2] is recorded as “significantly inhibited”. The “inhibition of E-selectin” value in assay [3] is recorded as “maximum inhibition”. In assay [4] (H-89 then MPTAG, TNF-α), the “TNF-α-induced NF-κB activation (EMSA), H-89 treatment preceding MPTAG” value is “remained increased”. Also, the “TNF-α-induced NF-κB DNA-binding activity / NF-κB activation (EMSA)” value in assay [4] (MPTAG 400 µM, dose-dependent) is listed as “almost complete inhibition; also recorded: significantly inhibited”. Further, the “TNF-α-induced NF-κB activation (EMSA), MPTAG treatment preceding H-89” value in assay [4] (MPTAG then H-89, TNF-α) is “inhibited”. Also, in assay [4] (without TNF-α stimulation), the “basal NF-κB activation” value was “no significant inhibitory effect”. Besides, the “TNF-α-induced NF-κB activation (EMSA) in presence or absence of wortmannin” value in assay [4] (wortmannin before MPTAG, then TNF-α) is on record as “inhibited similarly”. The “TNF-α-induced E-selectin mRNA level” value in assay [5] is given as “significantly reduced”. Besides, the “TNF-α-induced activation of IKK-β” value in assay [6] (pretreatment of cells, dose-dependent) was “appreciably suppressed”. In addition, the “protein levels of IKK-β” value in assay [6] (western blot) was “neither TNF-α nor MPTAG affected”. Further, in assay [7], the “TNF-α-induced association of Akt with IKK-β” value is on record as “significantly prevented”. In addition, in assay [8], the “TNF-α-induced VCAM-1 mRNA level” value was “significantly reduced”.
